Results from PubChem BioAssay AID1963973 (Molecular Pharmacology Branch, DTP, NCI, 2024).

System: 883617-216-R-J1-PDC tumor spheroids, viability
Assay: Anticancer human tumor 883617-216-R-J1-PDC patient-derived bladder carcinoma cell line growth inhibition [PI3K]
Conditions: spheroids with HUVEC and MSC; for IC50: curve of first compound; for viability, T/C: stronger effect = lower value; active means viability on the fitted dose curve at most 10% of control; inactive means the rest
Outline: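 Tumor cells grown as multi-cell spheroids with HUVEC endothelial cells and MSC fibroblast-like stroma were treated with targeted agents combined with inavolisib, alpelisib, duvelisib or copanlisib. Doses fell in half-log steps from near clinical Cmax, else from 10 microM. Viability was measured.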

[1] = second compound 0.0316 µM, first compound 0.0316 µM
[2] = second compound 0.0316 µM, first compound 0.1 µM
[3] = second compound 0.1 µM, first compound 0.0316 µM
[4] = second compound 0.1 µM, first compound 0.1 µM
[5] = second compound 0.316 µM, first compound 0.0316 µM
[6] = second compound 0.316 µM, first compound 0.1 µM
[7] = second compound 1 µM, first compound 0.0316 µM
[8] = second compound 1 µM, first compound 0.1 µM
[9] = second compound 3.16 µM, first compound 0.0316 µM
[10] = second compound 3.16 µM, first compound 0.1 µM
[11] = second compound 10 µM, first compound 0.0316 µM
[12] = second compound 10 µM, first compound 0.1 µM
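Further: spheroids exposed to agents for 7 days before the viability read.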

CC(C)n1nc(-c2ccc3oc(N)nc3c2)c2c(N)ncnc21 + CC(Nc1ncnc2nc[nH]c12)c1cc2cccc(Cl)c2c(=O)n1-c1ccccc1
inactive: viability, T/C (second compound 0.0316 µM, first compound 0.000316 µM) 91% | viability, T/C (second compound 0.0316 µM, first compound 0.001 µM) 75.2% | viability, T/C (second compound 0.0316 µM, first compound 0.00316 µM) 76.8% | viability, T/C (second compound 0.0316 µM, first compound 0.01 µM) 82% | viability, T/C [1] 50.4% | viability, T/C [2] 18.4% | viability, T/C (second compound 0.1 µM, first compound 0.000316 µM) 95.3% | viability, T/C (second compound 0.1 µM, first compound 0.001 µM) 93% | viability, T/C (second compound 0.1 µM, first compound 0.00316 µM) 87.6% | viability, T/C (second compound 0.1 µM, first compound 0.01 µM) 69.7% | viability, T/C [3] 54.5% | viability, T/C [4] 17.4% | viability, T/C (second compound 0.316 µM, first compound 0.000316 µM) 87.4% | viability, T/C (second compound 0.316 µM, first compound 0.001 µM) 92.5% | viability, T/C (second compound 0.316 µM, first compound 0.00316 µM) 81.7% | viability, T/C (second compound 0.316 µM, first compound 0.01 µM) 72.8% | viability, T/C [5] 49% | viability, T/C [6] 19.9% | viability, T/C (second compound 1 µM, first compound 0.000316 µM) 91.2% | viability, T/C (second compound 1 µM, first compound 0.001 µM) 77.1% | viability, T/C (second compound 1 µM, first compound 0.00316 µM) 80.2% | viability, T/C (second compound 1 µM, first compound 0.01 µM) 68.3% | viability, T/C [7] 40.2% | viability, T/C [8] 19.6% | viability, T/C (second compound 3.16 µM, first compound 0.000316 µM) 83.6% | viability, T/C (second compound 3.16 µM, first compound 0.001 µM) 58.9% | viability, T/C (second compound 3.16 µM, first compound 0.00316 µM) 63.2% | viability, T/C (second compound 3.16 µM, first compound 0.01 µM) 60.6% | viability, T/C [9] 38.1% | viability, T/C [10] 17.7% | viability, T/C (second compound 10 µM, first compound 0.000316 µM) 48.3% | viability, T/C (second compound 10 µM, first compound 0.001 µM) 50.7% | viability, T/C (second compound 10 µM, first compound 0.00316 µM) 45.8% | viability, T/C (second compound 10 µM, first compound 0.01 µM) 36.3% | viability, T/C [11] 26.8% | viability, T/C [12] 13%
30 nM: IC50 (second compound 0.316 µM)
32.1 nM: IC50 (second compound 0.0316 µM)
0.321 nM: IC50 (second compound 10 µM)
34.2 nM: IC50 (second compound 0.1 µM)
21.3 nM: IC50 (second compound 1 µM)
13.5 nM: IC50 (second compound 3.16 µM)

CCCS(=O)(=O)Nc1ccc(F)c(C(=O)c2c[nH]c3ncc(-c4ccc(Cl)cc4)cc23)c1F + CC(Nc1ncnc2nc[nH]c12)c1cc2cccc(Cl)c2c(=O)n1-c1ccccc1
3620 nM: IC50 (second compound 3.16 µM)
4650 nM: IC50 (second compound 0.1 µM)
1700 nM: IC50 (second compound 10 µM)
4540 nM: IC50 (second compound 0.316 µM)
4210 nM: IC50 (second compound 0.0316 µM)
3910 nM: IC50 (second compound 1 µM)
active: viability, T/C (second compound 0.0316 µM, first compound 10 µM) 9.37%
inactive: viability, T/C [1] 94.8% | viability, T/C [2] 92.3% | viability, T/C (second compound 0.0316 µM, first compound 0.316 µM) 97.1% | viability, T/C (second compound 0.0316 µM, first compound 1 µM) 102% | viability, T/C (second compound 0.0316 µM, first compound 3.16 µM) 63.4% | viability, T/C [3] 85% | viability, T/C [4] 91.8% | viability, T/C (second compound 0.1 µM, first compound 0.316 µM) 114% | viability, T/C (second compound 0.1 µM, first compound 1 µM) 85.1% | viability, T/C (second compound 0.1 µM, first compound 3.16 µM) 70.5% | viability, T/C (second compound 0.1 µM, first compound 10 µM) 10.7% | viability, T/C [5] 91.8% | viability, T/C [6] 91.1% | viability, T/C (second compound 0.316 µM, first compound 0.316 µM) 95% | viability, T/C (second compound 0.316 µM, first compound 1 µM) 97.1% | viability, T/C (second compound 0.316 µM, first compound 3.16 µM) 67.7% | viability, T/C (second compound 0.316 µM, first compound 10 µM) 11.3% | viability, T/C [7] 99.9% | viability, T/C [8] 89% | viability, T/C (second compound 1 µM, first compound 0.316 µM) 87.9% | viability, T/C (second compound 1 µM, first compound 1 µM) 72.4% | viability, T/C (second compound 1 µM, first compound 3.16 µM) 65.1% | viability, T/C (second compound 1 µM, first compound 10 µM) 9.68% | viability, T/C [9] 75.3% | viability, T/C [10] 75.7% | viability, T/C (second compound 3.16 µM, first compound 0.316 µM) 72.1% | viability, T/C (second compound 3.16 µM, first compound 1 µM) 71.5% | viability, T/C (second compound 3.16 µM, first compound 3.16 µM) 55.2% | viability, T/C (second compound 3.16 µM, first compound 10 µM) 10.6% | viability, T/C [11] 52.9% | viability, T/C [12] 57.4% | viability, T/C (second compound 10 µM, first compound 0.316 µM) 55.3% | viability, T/C (second compound 10 µM, first compound 1 µM) 66.5% | viability, T/C (second compound 10 µM, first compound 3.16 µM) 40.5% | viability, T/C (second compound 10 µM, first compound 10 µM) 11.8%
